Biological target: T1, human vasopressin V1a receptor subtype (Homo sapiens, UniProt P37288)
T1 construct: host or cells: CHO cells (pZeoSV vector for the Thibonnier line)
Assay: Vasopressin binding in Chinese Hamster Ovary cell membranes expressing human vasopressin V1a subtype receptors
Settings: 100 nM, CHO cell membranes, [3H]Manning ligand, values without parentheses
Method: Vasopressin Binding in Chinese Hamster Ovary Cell Membranes Expressing Human Vasopressin V1a Subtype Receptors
The trypsin is removed by aspiration and the cells dislodged by tapping. Cell Culture medium (e.g. 30 mL for 1:30 split) is immediately added and mixed well to inactivate trypsin. 1 mL of detached cells is added to new culture flasks containing fresh cell culture medium (e.g., into 25 mL per T-150 flask), and mixed gently. The cells are incubated at 37° C. in 5% CO2. The medium is changed at 3 to 4 days interval (or as appropriate). […] All steps are done under sterile conditions. B. Membrane Preparation: The cells are washed twice gently with Hank's Balanced Salt solution (e.g,. use 10 mL per T-150 flask). […] The contents are transferred to centrifuge tubes (50 mL) kept in an ice bath. All subsequent steps are done at 4° C. The tubes are centrifuged at 300×g for 15 min (1380 rpm on SORVAL, Model RT6000D, using the rotor for 50 mL tubes). The supernatant is discarded and the cells suspended in homogenizing buffer(10 mM Tris-HCl containing 0.25 M sucrose and 1 mM EDTA, pH 7.4) ensuring that the volume of the buffer is about ten times the volume of the cell pellet. The cells are pooled into a centrifuge tube (50 mL) and homogenized with a Polytron at setting 6 for 10 sec. The homogenate is transferred into a Potter-Elvjehm homogenizer and homogenized with 3 strokes. The homogenate is centrifuged at 1500×g for 10 min at 4° C. (3100 rpm using SORVAL, model RT6000D, using the rotor for 50 mL tubes). The pellet is discarded. The supernatant is centrifuged at 100,000×g for 60 min. at 4° C. (Beckman L8-80M ultracentrifuge; spin at 37,500 rpm with rotor type 70 Ti for 50 mL tubes; 38,000 rpm with type 80Ti for 15 mL tubes; or 35,800 rpm with rotor type 45Ti). The supernantant is discarded and the pellet suspended in 3 to 4 mL of Tris buffer (50 mM TRIS-HCl, pH 7.4). The protein content is estimated by the Bradford or Lowry method. The volume of the membrane suspension is adjusted with the membrane buffer (50 mM Tris-HCl containing 0.1% BSA and 0.1 mM PMSF) to give 3.0 mg/mL (or as appropriate) of protein. The membranes are aliquoted and stored at −70° C. C. Radioligand Binding Assay: In wells of a 96-well format microtiter plate, is added 90, 110 or 130 μL (to make up a final volume of 200 μL) of assay buffer containing 50 mM of Tris-HCl (pH 7.4), BSA (heat inactivated, protease-free), […], 1 mg % aprotinin, 1 mg % leupeptin, 2 mg % 1,10-phenanthroline, 10 mg % trypsin inhibitor, and 0.1 mM PMSF. The inhibitors are added on the day of the experiment. The components are mixed at room temperature, and then kept in ice bath following adjustment of the pH to 7.4. […] 20 μL of 50% DMSO is added for Manning and other peptide ligands and the assay buffer volume is adjusted accordingly. To each well is added 50 μL of frozen membrane suspension thawed immediately prior to use and diluted in the assay buffer to the required concentration (equivalent to 25 to 50 μg of protein/well as needed). 20 μL of 8 nM [^3H]Manning ligand in the assay buffer, prepared just before use, is added, and incubated at room temperature for 60 min. shaking the plate on a mechanical shaker for the first 15 min. The incubation is stopped by rapid filtration of the plate contents followed by wash with ice-cold buffer (50 mM Tris-HCl, pH 7.4) using a cell harvester (Tomtek and Printed filtermat-B filter paper). The filter paper is thoroughly dried (7–12 min. in a microwave oven) and impregnated with MeltiLex B/H melt-on scintillation wax sheets and the radioactivity counted in a betaplate scintillation counter.
Binding data is either reported as percent inhibition at a certain concentration or if an IC50 was calculated, as a nanomolar concentration.

T1 sequence (P37288 whole entry): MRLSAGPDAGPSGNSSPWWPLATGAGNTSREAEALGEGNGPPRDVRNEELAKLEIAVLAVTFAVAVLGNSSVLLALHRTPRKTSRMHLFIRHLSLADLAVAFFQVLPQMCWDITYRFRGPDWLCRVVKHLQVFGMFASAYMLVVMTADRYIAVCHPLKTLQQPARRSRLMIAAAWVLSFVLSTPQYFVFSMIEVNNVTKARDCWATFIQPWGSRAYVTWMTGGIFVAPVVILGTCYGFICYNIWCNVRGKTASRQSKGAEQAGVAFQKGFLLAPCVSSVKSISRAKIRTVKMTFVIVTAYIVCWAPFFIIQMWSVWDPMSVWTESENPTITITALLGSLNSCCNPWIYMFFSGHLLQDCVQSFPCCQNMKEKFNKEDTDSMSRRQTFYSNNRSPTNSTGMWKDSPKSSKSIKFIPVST

inhibition at 0.1 µM [%]	Compound	V1a % inhibition @ 100 nM [%]
52	COc1cccc(-c2ccc(C(=O)N3Cc4ccc(C(=O)N(C)CCCN(C)C)n4Cc4ccccc43)cc2OC)c1 [Example 108, 10-[(2,3′-Dimethoxy[1,1′-biphenyl]-4-yl)carbonyl]-N-[3-(dimethylamino)propyl]-N-methyl-10,11-dihydro-5H-pyrrolo[2,1-c][1,4]benzodiazepine-3-carboxamide]	
10	COc1cccc(-c2ccc(C(=O)N3Cc4ccc(C(=O)NCCCn5ccnc5)n4Cc4ccccc43)cc2C)c1 [Example 125, N-[3-(1H-Imidazol-1-yl)propyl]-10-[(3′-methoxy-2-methyl[1,1′-biphenyl]-4-yl)carbonyl]-10,11-dihydro-5H-pyrrolo[2,1-c][1,4]benzodiazepine-3-carboxamide]	
	Cc1ccccc1-c1ccc(C(=O)N2Cc3ccc(C(=O)N4CC[C@@H](N(C)C)C4)n3Cc3ccccc32)cc1 [Example 280, [(3R)-3-(Dimethylamino)pyrrolidinyl]{10-[(2′-methyl[1,1′-biphenyl]-4-yl)carbonyl]-10,11-dihydro-5H-pyrrolo[2,1-c][1,4]benzodiazepin-3-yl}methanone]	77
	COc1cc(C(=O)N2Cc3ccc(C(=O)N4CCC[C@H]4CN4CCCC4)n3Cc3ccccc32)ccc1-c1ccccc1C [Example 266, {10-[(2-Methoxy-2′-methyl[1,1′-biphenyl]-4-yl)carbonyl]-10,11-dihydro-5H-pyrrolo[2,1-c][1,4]benzodiazepin-3-yl}[(2S)-2-(1-pyrrolidinylmethyl)pyrrolidinyl]methanone]	49
4	COc1cccc(-c2cc(OC)c(C(=O)N3Cc4ccc(C(=O)NCCCn5ccnc5)n4Cc4ccccc43)cc2Cl)c1 [Example 130, 10-[(6-Chloro-3,3′-dimethoxy[1,1′-biphenyl]-4-yl)carbonyl]-N-[3-(1H-imidazol-1-yl)propyl]-10,11-dihydro-5H-pyrrolo[2,1-c][1,4]benzodiazepine-3-carboxamide]	
9	COc1ccccc1-c1ccc(C(=O)N2Cc3ccc(C(=O)NCCCn4ccnc4)n3Cc3ccccc32)cc1C [Example 123, N-[3-(1H-Imidazol-1-yl)propyl]-10-[(2′-methoxy-2-methyl[1,1′-biphenyl]-4-yl)carbonyl]-10,11-dihydro-5H-pyrrolo[2,1-c][1,4]benzodiazepine-3-carboxamide]	
16	Cc1ccccc1-c1ccc(C(=O)N2Cc3ccc(C(=O)NCCCn4ccnc4)n3Cc3ccccc32)cc1 [Example 127, N-[3-(1H-Imidazol-1-yl)propyl]-10-[(2′-methyl[1,1′-biphenyl]-4-yl)carbonyl]-10,11-dihydro-5H-pyrrolo[2,1-c][1,4]benzodiazepine-3-carboxamide]	
45	Cc1ccccc1-c1ccc(C(=O)N2Cc3ccc(C(=O)N4CCC(N5CCCCC5)CC4)n3Cc3ccccc32)cc1C [Example 113, {10-[(2-Methyl-2′-methyl[1,1′-biphenyl]-4-yl)carbonyl]-10,11-dihydro-5H-pyrrolo[2,1-c][1,4]benzodiazepin-3-yl}[4-(1-piperidinyl)-1-piperidinyl]methanone]	
23	COc1ccccc1-c1ccc(C(=O)N2Cc3ccc(C(=O)NCCN4CCCCC4)n3Cc3ccccc32)cc1 [Example 152, 10-[(2′-Methoxy[1,1′-biphenyl]-4-yl)carbonyl]-N-[2-(1-piperidinyl)ethyl]-10,11-dihydro-5H-pyrrolo[2,1-c][1,4]benzodiazepine-3-carboxamide]	
	COc1ccccc1-c1ccc(C(=O)N2Cc3ccc(C(=O)N4CC[C@@H](N(C)C)C4)n3Cc3ccccc32)cc1 [Example 279, [(3R)-3-(Dimethylamino)pyrrolidinyl]{10-[(2′-methoxy[1,1′-biphenyl]-4-yl)carbonyl]-10,11-dihydro-5H-pyrrolo[2,1-c][1,4]benzodiazepin-3-yl}methanone]	39
	COc1cccc(-c2ccc(C(=O)N3Cc4ccc(C(=O)NCCC5CCCN5C)n4Cc4ccccc43)cc2C)c1 (stereo not shown) [Example 164, 10-[(3′-Methoxy-2-methyl[1′1′-biphenyl]-4-yl)carbonyl]-N-[2-(1-methyl-2-pyrrolidinyl)ethyl]-10,11-dihydro-5H-pyrrolo[2,1-c][1,4]benzodiazepine-3-carboxamide]	23
	O=C(c1ccc(-c2cccc3ccccc23)cc1Cl)N1Cc2ccc(C(=O)N3CCC[C@H]3CN3CCCC3)n2Cc2ccccc21 [Example 261, {10-[2-Chloro-4-(1-naphthyl)benzoyl]-10,11-dihydro-5H-pyrrolo[2,1-c][1,4]benzodiazepin-3-yl}[(2S)-2-(1-pyrrolidinylmethyl)pyrrolidinyl]methanone]	13
	COC(=O)c1ccc2c(c1)N(C(=O)c1ccc(-c3ccccc3C(F)(F)F)c(C)c1)Cc1cccn1C2 [Example 26, Methyl 10-{[2-methyl-2′-trifluoromethyl-[1,1′-biphenyl]-4-yl]carbonyl}-10,11-dihydro-5H-pyrrolo[2,1-c][1.4]benzodiazepine-8-carboxylate]	−3
	Cc1ccccc1-c1ccc(C(=O)N2Cc3ccc(C(=O)N4CCC[C@H]4CN4CCCC4)n3Cc3ccccc32)cc1C [Example 260, {10-[(2,2′-Dimethyl[1,1′-biphenyl]-4-yl)carbonyl]-10,11-dihydro-5H-pyrrolo[2,1-c][1,4]benzodiazepin-3-yl}[(2S)-2-(1-pyrrolidinylmethyl)pyrrolidinyl]methanone]	55
	COc1ccccc1-c1ccc(C(=O)N2Cc3ccc(C(=O)N4CCC[C@H]4CN4CCCC4)n3Cc3ccccc32)cc1 [Example 265, {10-[(2′-Methoxy[1,1′-biphenyl]-4-yl)carbonyl]-10,11-dihydro-5H-pyrrolo[2,1-c][1,4]benzodiazepin-3-yl}[(2S)-2-(1-pyrrolidinylmethyl)pyrrolidinyl]methanone]	31
5	O=C(NCCCn1ccnc1)c1ccc2n1Cc1ccccc1N(C(=O)c1ccc(-c3cccc4ccccc34)cc1Cl)C2 [Example 134, 10-[2-Chloro-4-(1-naphthyl)benzoyl]-N-[3-(1H-imidazol-1-yl)propyl]-10,11-dihydro-5H-pyrrolo[2,1-c][1,4]benzodiazepine-3-carboxamide]	
	COc1cc(C(=O)N2Cc3ccc(C(=O)N(C)CCCN(C)C)n3Cc3ccccc32)ccc1-n1c(C)ccc1C [Example 310, N-[3-(Dimethylamino)propyl]-10-[4-(2,5-dimethyl-i H-pyrrol-1-yl)-3-methoxybenzoyl]-N-methyl-10,11-dihydro-5H-pyrrolo[2,1-c][1,4]benzodiazepine-3-carboxamide]	4
-3	Cc1ccccc1-c1ccc(C(=O)N2Cc3ccc(C(=O)N4CCC(N5CCCC5)CC4)n3Cc3ccccc32)cc1 [Example 141, {10-[(2′-Methyl[1,1′-biphenyl]-4-yl)carbonyl]-10,11-dihydro-5H-pyrrolo[2,1-c][1,4]benzodiazepin-3-yl}[4-(1-pyrrolidinyl)-1-piperidinyl]methanone]	
2	Cc1cc(C(=O)N2Cc3ccc(C(=O)NCCCn4ccnc4)n3Cc3ccccc32)ccc1-c1ccccc1C(F)(F)F [Example 135, N-[3-(1H-Imidazol-1-yl)propyl]-10-{[2-methyl-2′-(trifluoromethyl)[1,1′-biphenyl]-4-yl]carbonyl}-10,11-dihydro-5H-pyrrolo[2,1-c][1,4]benzodiazepine-3-carboxamide]	

From patent US7109193B2, “Tricyclic diazepines tocolytic oxytocin receptor antagonists” (Wyeth, priority 2001, dated 2006)
